Data reported in paper PMC12255297 (Nucleic Acids Research, 2025).

Key:
[1] = molecular target: T1, C. botulinum SAM-AMP lyase (Clostridium botulinum, UniProt A5I3U9)
T1 construct: gene CBO2178

[2] = molecular target: T1, C. botulinum SAM-AMP lyase; remark: listed apart in the source

T1 sequence (A5I3U9 1-124 limits assumed): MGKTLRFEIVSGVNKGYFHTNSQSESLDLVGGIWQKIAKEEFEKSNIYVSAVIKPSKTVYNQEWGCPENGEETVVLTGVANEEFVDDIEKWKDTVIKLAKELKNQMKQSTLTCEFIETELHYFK

| SMILES | electrophoretic mobility shift assay, native gel [1] | HPLC and LC-MS of cleavage to MTA-AMP and homoserine lactone [2] |
| --- | --- | --- |
| CSC[C@H]1O[C@@H](n2cnc3c(N)ncnc32)[C@H](O)[C@@H]1OP(=O)(O)OC[C@H]1O[C@@H](n2cnc3c(N)ncnc32)[C@H](O)[C@@H]1O [MTA-AMP] | SAM-AMP lyase binds its product MTA-AMP, but not SAH-AMP or SFG-AMP |  |
| C[S+](CC[C@H](N)C(=O)O)C[C@H]1O[C@@H](n2cnc3c(N)ncnc32)[C@H](O)[C@@H]1OP(=O)(O)OC[C@H]1O[C@@H](n2cnc3c(N)ncnc32)[C@H](O)[C@@H]1O (some centres unmarked) [SAM-AMP] |  | HPLC analysis and mass spectrometry confirmed that SAM-AMP was degraded, generating the previously observed MTA-AMP product |
